Results: US8637043B2, “Compositions useful as ligands for the formyl peptide receptor like 1 receptor and methods of use thereof” (Chemocentryx, Inc., priority 2001, dated 2014)
Where “and” joins values, the source holds several entries; their conditions need not be identical. Equal entries are not always repeated. Blank lines part the entries; values can stand above or below the substance they belong to. Ends that are not written are not given here.

Columns and labels:
OVA-specific IgG = test: Adjuvant activity, anti-OVA antibodies in mice (Example 17); assay type: in vivo, BALB/c mice; conditions: 10 μg OVA
Procedure: First, 96-well U-bottom plastic dishes were coated overnight with 1 μg ovalbumin (OVA) in 100 μl PBS per well. The next day, the dishes were rinsed with PBS, blocked with PBS containing 5% fetal bovine serum (FBS), and rinsed with PBS again. Plasma samples from experimental animals (see below) were diluted 10^2- to 10^5-fold and added to the dishes for 2 hours, after which the dishes were again rinsed with PBS. The dishes were then incubated with biotinylated goat anti-monkey IgG detection antibodies, then rinsed with PBS and incubated with streptavidin-linked horseradish peroxidase (SA-HRP). After a final rinsing with PBS, the HRP substrate 2,2′-Azinobis [3-ethylbenzothiazoline-6-sulfonic acid]-diammonium salt was added. Color development was measured with an ELISA plate reader at 405 nm, and optical density (OD) units were converted to arbitrary “antibody units,” where a unit is defined as the inverse of the plasma dilution that produces 50% of the maximum response from a standard curve obtained by serial dilution of an ascites collected from OVA-injected mice and containing OVA-specific antibodies.
The experiment described in Example 16 was repeated, except the formulations were administered to BALB/c mice with 10 μg (Table 20) or 500 μg (Table 21) of OVA with in 100 μl. IFA was not used.
BALB/c mice were given OVA with or without SHAAYtide (SEQ ID NO:6) either intraperitoneally on days 0 and 21 (Table 20), or sub-cutaneously on days 0 and 14 (Table 21). Blood samples were collected at the indicated time points. The results, reported in antibody units, are given in Tables 20 and 21, showing IgG levels.

dendritic cells = test: Dendritic cell infiltration after intradermal injection in mice (anti-DEC-205 staining); assay type: in vivo; parameters: key to Dendritic cell infiltration Score / Infiltration Score: 0 = none, 1 = slight, 2 = mild, 3 = moderate, 4 = severe; conditions: for Infiltration Score: BALB/c mice, various doses
From the text: The following chemokines were obtained from R&D Systems (Minneapolis, Minn.): vMCK-2, mC10, and GM-CSF. The following peptides were synthesized at Phoenix Pharmaceuticals (San Carlos, Calif.): SHAAYtide (SEQ ID NO:6), several […] MODIFIED peptides of SHAAGtide variant (SEQ ID NO:) (i.e. cyclized using the MPR-Cys linked cyclization), control peptide (SEQ ID NO:33, […]Gin Pro Gly lie Lys Arg Arg Trp Leu Met), randomly conjugated to OVA in either a 1:1 or 1:4 ratio (by MBS coupling method), and conjugated to OVA at the C-terminus (C-term, made by the addition of a cysteine), and SHAAGtide variant (SEQ ID NO:3). In three separate experiments, chemokines or peptides (2 μg or 20 μg in PBS) were injected intradermally into BALB/c or C57BI/6 mice (Jackson Laboratory; Bar Harbor, Me.). In each experiment, one mouse received an injection of PBS only as a negative control. At various times after injection, the mice were euthanized, and the area around the injection site was excised and subjected to immunohistology. Frozen sections were stained with anti-DEC-205 antibody (Bio-Whittaker Molecular Applications; Rockland, Me.) that recognizes a dendritic cell-specific molecule (Kraal et al., 1986). A relative staining number on a scale of […] was assigned to each section (0, none; 1, slight; 2, mild; 3, moderate; 4, severe).

human FPRL1 = biological target: T1, human FPRL1 (Homo sapiens, UniProt P25090); test: Calcium flux in FPRL1-L1.2 transfectants; assay type: cell-based; conditions: for Designation and FPRL1 Activity: qualitative rating high, moderate, low, see Example 9; for Notes: activity: qualitative rating, Table 6
T1 construct: Full length cDNA encoding FPRL1 was cloned, using the polymerase chain reaction (PCR), from genomic DNA isolated from undifferentiated HL-60 cells; expressed in transfected cells; linearized FPRL1/pcDNA3.1, electroporation
T1 sequence (P25090 1-351): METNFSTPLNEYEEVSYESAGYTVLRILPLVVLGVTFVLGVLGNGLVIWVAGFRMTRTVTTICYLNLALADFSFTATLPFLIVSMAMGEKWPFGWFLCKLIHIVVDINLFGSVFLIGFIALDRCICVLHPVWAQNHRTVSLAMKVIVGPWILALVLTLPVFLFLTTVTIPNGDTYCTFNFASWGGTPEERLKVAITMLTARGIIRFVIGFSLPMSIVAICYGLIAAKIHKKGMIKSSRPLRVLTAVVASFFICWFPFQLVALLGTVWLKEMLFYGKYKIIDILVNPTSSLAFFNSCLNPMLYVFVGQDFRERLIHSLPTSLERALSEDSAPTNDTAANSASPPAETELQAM
Procedure: Ca^2+ mobilization responses were performed using the intracellular ratiometric fluorescent dye, lndo-1. Cells were loaded with Indo-1/AM (3 μM; Molecular Probes, Eugene, Oreg.) in culture medium (45 min, 20° C., 10^7 cells/ml). After dye loading, cells were washed once with 10 ml PBS) and resuspended at 10^6 cell/ml in HBSS containing 1% FBS. Cytosolic [Ca^2+] release was determined using excitation at 350 nm using a Photon Technology International fluorimeter (excitation at 350 nm, ratioed dual emission at 400 and 490 nm).
The functional activities of CKβ8-1 (25-116) were investigated in human FPRL1-L1.2 transfectants and in native L1.2 cells. Stable expression of formyl peptide-like receptor 1 (FPRL1) in L.1.2 cell was obtained as follows. Full length cDNA encoding FPRL1 was cloned, using the polymerase chain reaction (PCR), from genomic DNA isolated from undifferentiated HL-60 cells. […] Twenty micrograms of the FPRL1/pcDNA3.1 construct were linearized by digestion with Bsm1 (New England Biolabs, Beverly, Mass.) and used to transfect the murine B cell line L1.2 as follows. Twenty five million cells were washed twice and resuspended in 0.8 ml of PBS. The cells were incubated for 10 min at room temperature with the linearized FPRL/pcDNA3.1 construct DNA and transferred to a 0.4-cm cuvette, and a single electroporation pulse was applied at 250 V, 960 μF. Electroporated cells were incubated for 10 min at room temperature and transferred to culture at 37° C. in RPMI supplemented with 10% FCS. Geneticin (G418) was added to a final concentration of 800 μg/ml 48 h posttransfection and the cells plated into 96-well plates at 25,000 cells/well. After 2-3 weeks under drug selection, stable geneticin-resistant FPLR1 expressing cells were assessed for their ability to mobilize Ca^++ in response to SHAAGtide or CKbeta 8-1 at concentrations of 1 to 1000 nM.
A calcium flux test was performed on these transfectants using the method described in Example 1.
Stable expression of human FPRL1 in L1.2 cells was obtained as in Example 6. Calcium flux tests were conducted on the transfectants using the method described in Example 1. Chemokines (CKβ8(1-99), CKβ8(25-99), CKβ8-1(1-116) and CKβ8-1(25-116), were prepared as in Example 1. W peptides 1 and 2 were obtained as in Example 6. In addition, and the following SHAAGtide sequences and truncated variants (prepared as in Example 8) were tested:
All ligands were added in a dose response manner and the peak calcium flux response determined.

[1] = intraperitoneally on days 0 and 21, 0 day

Substance: 2 μg SHAAYtide (SEQ ID NO: 6): 2 μg SHAAYtide without OVA (MLWRRKIGPQMTLSHAAY; SHAAGtide variant)
- anti-OVA IgG, individual mouse (OVA-specific IgG; [1]): 7 antibody units (2×) and 14 antibody units and 24 antibody units
- anti-OVA IgG, average (OVA-specific IgG; intraperitoneally, 0 day): 13 antibody units
- anti-OVA IgG, average (OVA-specific IgG; intraperitoneally, 10 d): 68 antibody units
- anti-OVA IgG, increase from day 0 (OVA-specific IgG; intraperitoneally, 10 d): 55 antibody units
- anti-OVA IgG, individual mouse (OVA-specific IgG; intraperitoneally, 10 d): 0 antibody units (3×) and 273 antibody units
- anti-OVA IgG, average (OVA-specific IgG; intraperitoneally, 15 d): 0 antibody units
- anti-OVA IgG, increase from day 0 (OVA-specific IgG; intraperitoneally, 15 d): 0 antibody units
- anti-OVA IgG, individual mouse (OVA-specific IgG; intraperitoneally, 15 d): 0 antibody units
- anti-OVA IgG, average (OVA-specific IgG; intraperitoneally, 27 d): 51 antibody units
- anti-OVA IgG, increase from day 0 (OVA-specific IgG; intraperitoneally, 27 d): 38 antibody units
- anti-OVA IgG, individual mouse (OVA-specific IgG; intraperitoneally, 27 d): 47 antibody units (2×) and 58 antibody units
- anti-OVA IgG, average (OVA-specific IgG; intraperitoneally, 31 d): 19 antibody units
- anti-OVA IgG, increase from day 0 (OVA-specific IgG; intraperitoneally, 31 d): 6 antibody units
- anti-OVA IgG, individual mouse (OVA-specific IgG; intraperitoneally, 31 d): 47 antibody units and 17 antibody units and 12 antibody units and 0 antibody units
- anti-OVA IgG, average (OVA-specific IgG; intraperitoneally, 36 d): 42 antibody units
- anti-OVA IgG, increase from day 0 (OVA-specific IgG; intraperitoneally, 36 d): 29 antibody units
- anti-OVA IgG, individual mouse (OVA-specific IgG; intraperitoneally, 36 d): 60 antibody units (2×) and 46 antibody units and 0 antibody units

Substance: 20 μg SHAAYtide (SEQ ID NO: 6): 20 μg SHAAYtide without OVA (MLWRRKIGPQMTLSHAAY; SHAAGtide variant)
- anti-OVA IgG, individual mouse (OVA-specific IgG; [1]): 31 antibody units and 47 antibody units and 139 antibody units and 64 antibody units
- anti-OVA IgG, average (OVA-specific IgG; intraperitoneally, 0 day): 70 antibody units
- anti-OVA IgG, average (OVA-specific IgG; intraperitoneally, 10 d): 158 antibody units
- anti-OVA IgG, increase from day 0 (OVA-specific IgG; intraperitoneally, 10 d): 88 antibody units
- anti-OVA IgG, individual mouse (OVA-specific IgG; intraperitoneally, 10 d): 0 antibody units (2×) and 40 antibody units and 592 antibody units
- anti-OVA IgG, average (OVA-specific IgG; intraperitoneally, 15 d): 42 antibody units
- anti-OVA IgG, increase from day 0 (OVA-specific IgG; intraperitoneally, 15 d): 0 antibody units
- anti-OVA IgG, individual mouse (OVA-specific IgG; intraperitoneally, 15 d): 0 antibody units (3×) and 168 antibody units
- anti-OVA IgG, average (OVA-specific IgG; intraperitoneally, 27 d): 112 antibody units
- anti-OVA IgG, increase from day 0 (OVA-specific IgG; intraperitoneally, 27 d): 41 antibody units
- anti-OVA IgG, individual mouse (OVA-specific IgG; intraperitoneally, 27 d): 122 antibody units and 110 antibody units and 116 antibody units and 98 antibody units
- anti-OVA IgG, average (OVA-specific IgG; intraperitoneally, 31 d): 40 antibody units
- anti-OVA IgG, increase from day 0 (OVA-specific IgG; intraperitoneally, 31 d): 0 antibody units
- anti-OVA IgG, individual mouse (OVA-specific IgG; intraperitoneally, 31 d): 12 antibody units and 32 antibody units and 69 antibody units and 47 antibody units
- anti-OVA IgG, average (OVA-specific IgG; intraperitoneally, 36 d): 0 antibody units
- anti-OVA IgG, increase from day 0 (OVA-specific IgG; intraperitoneally, 36 d): 0 antibody units
- anti-OVA IgG, individual mouse (OVA-specific IgG; intraperitoneally, 36 d): 0 antibody units

Substance: GM-CSF
- Infiltration Score (dendritic cells; 6 hours): 2 and 1
- Infiltration Score (dendritic cells; 30 hours): 1
- infiltration of DEC-205-labeled cells (dendritic cells; summary of Tables 15, 16 and 17): excellent infiltration

Substance: MLWRRKIGPQMTLSH [SEQ ID NO: 3]
- Designation and FPRL1 Activity (human FPRL1): High
- Notes: activity (human FPRL1): High

Substance: RRKIGPQMTLSHAAG [SEQ ID NO: 2]
- IC50 (human FPRL1; peak calcium flux, dose response, read-out: Induction of Calcium Flux in FPRL1 L1.2 Cells, IC 50): > 50 µM

Substance: SHAAYtide (SEQ ID NO: 6), cyclized: structurally modified peptide, cyclized using the MPR-Cys linked cyclization (MLWRRKIGPQMTLSHAAY; also: cyclized using MPR-Cys linked cyclization, MPR and Cys not in given letters)
- Infiltration Score (dendritic cells; 30 hours): 1 and 2

Substance: WRRKIG [SEQ ID NO: 10, Trp Arg Arg Lys Ile Gly]
- Designation and FPRL1 Activity (human FPRL1): Low

Substance: WRRKIGPQMTLSHAAG [SEQ ID NO: 7]
- Designation and FPRL1 Activity (human FPRL1): Low

More lines, main results first:

- Designation and FPRL1 Activity (human FPRL1): Low
Substance: IGPQMTLSHAAG [SEQ ID NO: 4]

- Designation and FPRL1 Activity (human FPRL1; listed as CCXP11): Moderate
- Notes: activity (human FPRL1): Moderate
Substance: LWRRKIGPQMTLSH [SEQ ID NO: 11]
- Designation and FPRL1 Activity (human FPRL1): does not result in a complete loss in FRPL1 activity

- Designation and FPRL1 Activity (human FPRL1): moderate FPRL1 activity
- Designation and FPRL1 Activity (human FPRL1; listed as CCXP8): Moderate
- Notes: activity (human FPRL1): Moderate
Substance: MLWRRKIGPQM [SEQ ID NO: 8]

- Designation and FPRL1 Activity (human FPRL1): Moderate
- Notes: activity (human FPRL1): Moderate
Substance: MLWRRKIGPQMT [SEQ ID NO: 5]

- Designation and FPRL1 Activity (human FPRL1): Low
Substance: WRRKIGPQM [SEQ ID NO: 9]
